This is an account of results in US7615643B2 (SmithKline Beecham Corporation, priority 2006, dated 2009).

For the first test, the target named is T1, PLK1 (Homo sapiens, UniProt P53350).
T1 construct: PLK kinase domain (amino acids 21-346 preceded by MKKGHHHHHHD); made in house; host or cells: baculovirus infected T. ni cells
T1 sequence (P53350 21-346): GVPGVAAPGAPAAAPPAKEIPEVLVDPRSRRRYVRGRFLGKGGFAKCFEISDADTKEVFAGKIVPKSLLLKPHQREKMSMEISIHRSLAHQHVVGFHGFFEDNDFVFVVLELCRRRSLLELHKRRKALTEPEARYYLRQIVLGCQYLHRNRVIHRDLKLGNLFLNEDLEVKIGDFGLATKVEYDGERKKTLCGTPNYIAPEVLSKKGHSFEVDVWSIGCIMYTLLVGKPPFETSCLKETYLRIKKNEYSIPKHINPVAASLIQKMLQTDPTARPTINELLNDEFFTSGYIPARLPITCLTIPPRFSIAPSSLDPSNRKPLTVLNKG
The test is described as follows: Assay for inhibition of PLK1 (SPA kinase assay). It counts as biochemical. To be noted: 1 μM ATP, 2 nM PLK1 kinase domain. The procedure: I. Assay for Inhibition of PLK1
A. Preparation of 6× N-terminal His-tagged PLK Kinase Domain
6× N-terminal His-tagged PLK kinase domain (amino acids 21-346 preceded by MKKGHHHHHHD) SEQ ID: No. 1. was prepared from baculovirus infected T. ni cells under polyhedrin promoter control. All procedures were performed at 4° C. Cells were lysed In 50 mM HEPES, 200 mM NaCl, 50 mM imidazole, 5% glycerol; pH 7.5. The homogenate was centrifuged at 14K rpm in a SLA-1500 rotor for 1 hr and the supernatant filtered through a 1.2 micron filter. The supernatant was loaded onto a Nickel chelating Sepharose (Amersham Pharmacia) column and washed with lysis buffer. Protein was eluted using 20%, 30% and 100% buffer B steps where buffer B was 50 mM HEPES, 200 mM NaCl, 300 mM imidazole, 5% glycerol; pH 7.5. Fractions containing PLK were determined by SDS-PAGE. Fractions containing PLK were diluted five-fold with 50 mM HEPES, 1 mM DTT, 5% glycerol; pH 7.5, then loaded on an SP Sepharose (Amersham Pharmacia) column. After washing the column with 50 mM HEPES, 1 mM DTT, 5% glycerol; pH 7.5, PLK was step eluted with 50 mM HEPES, 1 mM DTT, 500 mM NaCl; 5% glycerol; pH 7.5. PLK was concentrated using a 10 kDa molecular weight cutoff membrane and then loaded onto a Superdex 200 gel filtration (Amersham Pharmacia) column equilibrated in 25 mM HEPES, 1 mM DTT, 500 mM NaCl, 5% glycerol; pH 7.5. Fractions containing PLK were determined by SDS-PAGE. PLK was pooled, aliquoted and stored at −80° C. Samples were quality controlled using mass spectrometry, N-terminal sequencing and amino acid analysis.
B. Enzyme Activity +/− Inhibitors was Determined as Follows:
All measurements were obtained under conditions where signal production increased linearly with time and enzyme. Test compounds were added to white 384-well assay plates (0.1 μL for 10 μL and some 20 μL assays, 1 μL for some 20 μL assays) at variable known concentrations in 100% DMSO. DMSO (1-5% final, as appropriate) and EDTA (65 mM in reaction) were used as controls. Reaction Mix was prepared as follows at 22° C.: • 25 mM HEPES, pH 7.2 • 15 mM MgCl2 • 1 μM ATP • 0.05 μCi/well ^33P-γ ATP (10 Ci/mMol) • 1 μM substrate peptide (Biotin-Ahx-SFNDTLDFD) SEQ ID:No. 2. • 0.15 mg/mL BSA • 1 mM DTT • 2 nM PLK1 kinase domain (added last)
Reaction Mix (10 or 20 μL) was quickly added to each well immediately following addition of enzyme via automated liquid handlers and incubated 1-1.5 h at 22° C. The 20 μL enzymatic reactions were stopped with 50 μL of stop mix (50 mM EDTA, 4.0 mg/mL Streptavidin SPA beads in Standard Dulbecco's PBS (without Mg^2+ and Ca^2+), 50 μM ATP) per well. The 10 μL reactions were stopped with 10 μL of stop mix (50 mM EDTA, 3.0 mg/mL Streptavidin-coupled SPA imaging Beads (“LeadSeeker”) in Standard Dulbecco's PBS (without Mg^2+ and Ca^2+), 50 μM ATP) per well. Plates were sealed with clear plastic seals, spun at 500×g for 1 min or settled overnight, and counted in Packard TopCount for 30 seconds/well (regular SPA) or imaged using a Viewlux imager (LeadSeeker SPA). Signal above background (EDTA controls) was converted to percent Inhibition relative to that obtained in control (DMSO-only) wells.
Regarding `C[C@@H](Oc1cc(-n2cnc3ccc(S(C)(=O)=O)cc32)sc1C(N)=O)c1cccc(OC2CCNCC2)c1Cl` [Example 60, 3-({(1R)-1-[2-chloro-3-(4-piperidineloxy)phenyl]ethyl}oxy)-5-[6-(methylsulfonyl)-1H-benzimidazol-1-yl]-2-thiophenecarboxamide], the “PLK1 pIC50” value was “+++ (pIC50>7)”.

Staying with this test, now noted: 1 μM ATP, 2 nM PLK1 kinase domain, read-out: PLK1 pIC50 (converted).
For the compound `CC(Oc1cc(-n2cnc3cc(-c4cnn(C)c4)ccc32)sc1C(N)=O)c1cccc(OC2CCN(C)CC2)c1` (racemic) [Example 74, (+/−)-3-[(1-{3-[(1-methyl-4-piperidinyl)oxy]phenyl}ethyl)oxy]-5-[5-(1-methyl-1H-pyrazol-4-yl)-1H -benzimidazol-1-yl]-2-thiophenecarboxamide], the IC50 was under 100 nM.

For the compound `C[C@@H](Oc1cc(-n2cnc3cc(-c4ccc(NC5CCN(C)CC5)nc4)ccc32)sc1C(N)=O)c1cccc(OC2CCN(C)CC2)c1Cl` [Example 18, 3-[((1R)-1-{2-chloro-3-[(1-methyl-4-piperidinyl)oxy]phenyl}ethyl)oxy]-5-(5-{6-[(1-methyl-4-piperidinyl)amino]-3-pyridinyl}-1H-benzimidazol-1-yl)-2-thiophenecarboxamide], the IC50 is under 100 nM.

With `C[C@@H](Oc1cc(-n2cnc3ccc(CS(C)(=O)=O)cc32)sc1C(N)=O)c1cccc(OCC2CCCN2C)c1Cl` (stereo partly drawn) [Example 57, 3-({(1R)-1-[2-Chloro-3-({[(2S)-1-methyl-2-pyrrolidinyl]metliyl}oxy)phenyl]ethyl}oxy)-5-{6-[(methylsulfonyl)methyl]-1H-benzimidazol-1-yl}-2-thiophenecarboxamide], the IC50 is under 100 nM. Still for that read-out and setting: next, `C[C@@H](Oc1cc(-n2cnc3cc(Cl)ccc32)sc1C(N)=O)c1cccc(OC2CCN(C)CC2)c1Cl` [Example 3]: under 100 nM; `Cc1cc(-c2ccc3c(c2)ncn3-c2cc(O[C@H](C)c3cccc(OC4CCN(C)CC4)c3Cl)c(C(N)=O)s2)ccn1` [Example 50, 3-[((1R)-1-{2-Chloro-3-[(1-methyl-4-piperidinyl)oxy]phenyl}ethyl)oxy]-5-[5-(2-methyl-4-pyridinyl)-1H-benzimidazol-1-yl]-2-thiophenecarboxamide]: under 100 nM. Still for that read-out and setting: the result for `C[C@@H](Oc1cc(-n2cnc3ccc(Cl)cc32)sc1C(N)=O)c1cccc(OC2CCN(C)CC2)c1Cl` [Example 53] reads under 100 nM. Turning to `C[C@@H](Oc1cc(-n2cnc3cc(-c4cccnc4)ccc32)sc1C(N)=O)c1cccc(OC2CCNCC2)c1Cl` [Example 12, 3-({(1R)-1-[2-chloro-3-(4-piperidinyloxy)phenyl]ethyl}oxy)-5-[5-(pyridinyl)-1H-benzimidazol-1-yl]-2-thiophenecarboxamide], the IC50 is under 100 nM. On the same count and under the same terms, next, `C[C@@H](Oc1cc(-n2cnc3cc(Cl)ccc32)sc1C(N)=O)c1cccc(OCCN2CCOCC2)c1Cl` [Example 26, 5-(5-Chloro-1H-benzimidazol-1-yl)-3-{[(1R)-1-(2-chloro-3-{[2-(4-morpholinyl)ethyl]oxy}phenyl)ethyl]oxy}-2-thiophenecarboxamide]: under 100 nM. On the same count and under the same terms, the result for `CC(Oc1cc(-n2cnc3cc(-c4cnn(C)c4)ccc32)sc1C(N)=O)c1ccnc(OC2CCN(C)CC2)n1` (racemic) [Example 78, (+/−)-3-[(1-{2-[(1-methyl-4-piperidinyl)oxy]-4-pyrimidinyl}ethyl)oxy]-5-[5-(1-methyl-1H-pyrazol-4-yl)-1H-benzimidazol-1-yl]-2-thiophenecarboxamide] reads 100 to 1000 nM; that for `C[C@@H](Oc1cc(-n2cnc3ccc(Br)cc32)sc1C(N)=O)c1cccc(OC2CCNCC2)c1Cl` [Example 7, 5-(6-Bromo-1H-benzimidazol-1-yl)-3-({(1R)-1-[2-chloro-3-(4-piperidinyloxy)phenyl]ethyl}oxy)-2-thiophenecarboxamide], under 100 nM. Same read-out and setting: next, `C[C@@H](Oc1cc(-n2cnc3ccccc32)sc1C(N)=O)c1cccc(OCCN2CCOCC2)c1Cl` [Example 15, 5-(1H-benzimidazol-1-yl)-3-{[(1R)-1-(2-chloro-3-{[2-(4-morpholinyl)ethyl]oxy}phenyl)ethyl]oxy}-2-thiophenecarboxamide]: under 100 nM; `Cc1ccc(-c2ccc3c(c2)ncn3-c2cc(O[C@H](C)c3cccc(OC4CCNCC4)c3Cl)c(C(N)=O)s2)cn1` [Example 9, 3-({(1R)-1-[2-chloro-3-(4-piperidinyloxy)phenyl]ethyl}oxy)-5-[5-(6-methyl-3-pyridinyl)-1H-benzimidazol-1-yl]-2-thiophenecarboxamide]: under 100 nM; `C[C@@H](Oc1cc(-n2cnc3cc(Cl)ccc32)sc1C(N)=O)c1cccc(OC2CCN(CCN)CC2)c1Cl` [Example 22, 3-{[(1R)-1-(3-{[1-(2-aminoethyl)-4-piperidinyl]oxy}-2-chlorophenyl)ethyl]oxy}-5-(5-chloro-1H-benzimidazol-1-yl)-2-thiophenecarboxamide]: under 100 nM. `C[C@@H](Oc1cc(-n2cnc3ccc(OC(F)(F)F)cc32)sc1C(N)=O)c1cccc(OC2CCN(C)CC2)c1Cl` [Example 64, 3-[((1R)-1-{2-chloro-3-[(1-methyl-4-piperidinyl)oxy]phenyl}ethyl)oxy]-5-{6-[(trifluoromethyl)oxy]-1H-benzimidazol-1-yl}-2-thiophenecarboxamide]: the IC50 was under 100 nM. Same read-out and setting: the result for `Cc1cc(-c2ccc3c(c2)ncn3-c2cc(O[C@H](C)c3cccc(OC4CCNCC4)c3Cl)c(C(N)=O)s2)ccn1` [Example 49, 3-({(1R)-1-[2-Chloro-3-(4-piperidinyloxy)phenyl]ethyl}oxy)-5-[5-(2-methyl-4-pyridinyl)-1H-benzimidazol-1-yl]-2-thiophenecarboxamide] reads under 100 nM. Still for that read-out and setting: next, `C[C@@H](Oc1cc(-n2cnc3cc(-c4cnn(C)c4)ccc32)sc1C(N)=O)c1cccc(OC2CCN(C(=O)OC(C)(C)C)CC2)c1Cl` [Example 46, 1,1-Dimethylethyl 4-({3-[(1R)-1-({2-(aminocarbonyl)-5-[5-(1-methyl-1H-pyrazol-4-yl)-1H-benzimidazol-1-yl]-3-thienyl}oxy)ethyl]-2-chlorophenyl}oxy)-1-piperidinecarboxylate]: under 100 nM; `CC(Oc1cc(-n2cnc3cc(-c4cnn(C)c4)ccc32)sc1C(N)=O)c1ccnc(OC2CCNCC2)c1` (racemic) [Example 79, (+/−)-5-[5-(1-Methyl-1H-pyrazol-4-yl)-1H-benzimidazol-1-yl]-3-({1-[2-(4-piperidinyloxy)-4-pyridinyl]ethyl}oxy)-2-thiophenecarboxamide]: under 100 nM; `C[C@@H](Oc1cc(-n2cnc3cc(F)c(F)cc32)sc1C(N)=O)c1cccc(OC2CCNCC2)c1Cl` [Example 65, 3-({(1R)-1-[2-chloro-3-(4-piperidinyloxy)phenyl]ethyl}oxy)-5-(5,6-difluoro-1H-benzimidazol-1-yl)-2-thiophenecarboxamide]: under 100 nM. The same measure, in the same setting: next, `CC(Oc1cc(-n2cnc3cc(-c4cnn(C)c4)ccc32)sc1C(N)=O)c1cc(OC2CCNCC2)ccn1` (stereo not drawn) [Example 85, 5-[5-(1-Methyl-1H-pyrazol-4-yl)-1H-benzimidazol-1-yl]-3-({1-[4-(4-piperidinyloxy)-2-pyridinyl]ethyl}oxy)-2-thiophenecarboxamide]: under 100 nM. Take `C[C@@H](Oc1cc(-n2cnc3cc(-c4cc[n+]([O-])cc4)ccc32)sc1C(N)=O)c1cccc(OC2CCNCC2)c1Cl` [Example 37, 3-({(1R)-1-[2-Chloro-3-(4-piperidinyloxy)phenyl]ethyl}oxy)-5-[5-(1-oxido-4-pyridinyl)-1H-benzimidazol-1-yl]-2-thiophenecarboxamide]: the IC50 was under 100 nM.
